Measurements as given in patent US4753953A, “Pyridonecarboxylic acid derivatives and antibacterial pharmaceutical compositions thereof” (priority 1985, dated 1988).
In brackets after ≈: the same amount, converted by molar mass. Like-named read-outs stand apart in the source and are kept apart here.

Experiments:
[1] = tested on: Bacillus subtilis PCI 219; experiment: MIC, in vitro antibacterial activity (standard strains); assay type: cell-based; settings: Bacillus subtilis, PCI219; 10^6 cells/ml; Gram +; read-out: MIC
S. epidermidis IID 866 = experiment: as above; assay type: cell-based; settings: Staphylococcus epidermidis, IID866; 10^6 cells/ml; Gram +; read-out: MIC
[2] = tested on: Streptococcus pyogenes (S-8); experiment: as above; assay type: cell-based; settings: Streptococcus pyogenes; 10^6 cells/ml; Gram +; read-out: MIC
E. faecalis IID 682 = experiment: as above; assay type: cell-based; settings: Enterococcus faecalis, IID682; 10^6 cells/ml; Gram +; read-out: MIC
[3] = tested on: Escherichia coli NIHJ JC-2; experiment: as above; assay type: cell-based; settings: Escherichia coli, NIHJJC2
P. mirabilis IID 994 = experiment: as above; assay type: cell-based; settings: Proteus mirabilis, IID994; 10^6 cells/ml; Gram -; read-out: MIC
[4] = tested on: Morganella morganii IID 602; experiment: as above; assay type: cell-based; settings: Morganella morganii, IID602; 10^6 cells/ml; Gram -; read-out: MIC
K. pneumoniae 1-220S = experiment: as above; assay type: cell-based, Klebsiella pneumoniae; settings: Klebsiella pneumoniae, 1220S; 10^6 cells/ml; Gram -; read-out: MIC
[5] = tested on: Citrobacter freundii IID 976; experiment: as above; assay type: cell-based; settings: Citrobacter freundii, IID976; 10^6 cells/ml; Gram -; read-out: MIC
[6] = tested on: Serratia marcescens IID 618; experiment: as above; assay type: cell-based; settings: Serratia marcescens, IID618; 10^6 cells/ml; Gram -; read-out: MIC
[7] = tested on: Pseudomonas aeruginosa V-1; experiment: as above; assay type: cell-based; settings: Pseudomonas aeruginosa, V1
P. aeruginosa IFO 12689 = experiment: as above; assay type: cell-based, Pseudomonas aeruginosa; settings: Pseudomonas aeruginosa, IFO12689; 10^6 cells/ml; Gram -; read-out: MIC
F. varium KYA 8501 = experiment: as above; assay type: cell-based; settings: Fusobacterium varium, KYA8501; 10^6 cells/ml; Gram -; read-out: MIC
[8] = tested on: Propionibacterium acens 11828; experiment: as above; assay type: cell-based; settings: Propionibacterium, 11828; 10^6 cells/ml; Gram +; read-out: MIC
[9] = tested on: Clostridium difficile I-E; experiment: as above; assay type: cell-based; settings: Clostridioides difficile; 10^6 cells/ml; Gram +
[10] = tested on: Peptostreptococcus anaerobius KYA 27337; experiment: as above; assay type: cell-based; settings: Peptostreptococcus anaerobius, KYA27337; 10^6 cells/ml; Gram +; read-out: MIC
MR S. aureus KYB 623 [11] = experiment: MIC of the infecting strain MR S. aureus KYB 623; assay type: cell-based; settings: Staphylococcus aureus; Table 3, strain of the mouse infection
S. pneumoniae S-4288 [12] = experiment: MIC of the infecting strain S. pneumoniae S-4288; assay type: cell-based; settings: Streptococcus pneumoniae, S4288; Table 4, strain of the mouse infection
E. coli ML 4707 = experiment: Therapeutic efficacy against systemic infections in mice, E. coli ML 4707; settings: Escherichia coli, ML4707, in Mus musculus, po, 1 h
MR S. aureus KYB 623 [13] = experiment: Therapeutic efficacy against systemic infections in mice, MR S. aureus KYB 623; settings: Staphylococcus aureus, in Mus musculus, po, 1 h
S. pneumoniae S-4288 [14] = experiment: Therapeutic efficacy against systemic infections in mice, S. pneumoniae S-4288; settings: Streptococcus pneumoniae, S4288, in Mus musculus, po, 1 h
E. limosum KYA 8486 = experiment: MIC, in vitro antibacterial activity (standard strains); assay type: cell-based; settings: Eubacterium limosum, KYA8486; 10^6 cells/ml; Gram +; read-out: MIC
[15] = 10^6 cells/ml, Gram -, read-out: MIC

| SMILES | MIC [1] [µg/mL] | MIC (S. epidermidis IID 866) [µg/mL] | MIC [2] [µg/mL] | MIC (E. faecalis IID 682) [µg/mL] | MIC [3, 15] [µg/mL] | MIC (P. mirabilis IID 994) [µg/mL] | MIC [4] [µg/mL] | MIC (K. pneumoniae 1-220S) [µg/mL] | MIC [5] [µg/mL] | MIC [6] [µg/mL] | MIC [7, 15] [µg/mL] | MIC (P. aeruginosa IFO 12689) [µg/mL] | MIC (F. varium KYA 8501) [µg/mL] | MIC [8] [µg/mL] | MIC [9] [µg/mL] | MIC [10] [µg/mL] | MIC (E. limosum KYA 8486) [µg/mL] | further results |
| --- | --- | --- | --- | --- | --- | --- | --- | --- | --- | --- | --- | --- | --- | --- | --- | --- | --- | --- |
| C[C@H]1CN(c2c(F)cc3c(=O)c(C(=O)O)cn(C4CC4)c3c2Cl)C[C@H]1N (relative stereo) [Example 16, 7-(cis-3-Amino-4-methyl-1-pyrrolidinyl)-8-chloro-1-cyclopropyl-6-fluoro-1,4-dihydro-4-oxo-3-quinolinecarboxylic acid] | 0.0125 (≈ 0.0329 µM) | 0.05 (≈ 0.132 µM) | 0.1 (≈ 0.263 µM) | 0.1 (≈ 0.263 µM) | 0.0063 (≈ 0.0166 µM) | 0.025 (≈ 0.0658 µM) | 0.05 (≈ 0.132 µM) | 0.05 (≈ 0.132 µM) | 0.025 (≈ 0.0658 µM) | 0.05 (≈ 0.132 µM) | 0.1 (≈ 0.263 µM) | 0.39 (≈ 1.03 µM) | 0.78 (≈ 2.05 µM) | 0.78 (≈ 2.05 µM) | 0.39 | 0.1 (≈ 0.263 µM) |  | MIC (MR S. aureus KYB 623 [11]): 0.025 µg/mL; MIC (S. pneumoniae S-4288 [12]): 0.1 µg/mL; ED50 (E. coli ML 4707): 1 mg/kg; ED50 (MR S. aureus KYB 623 [13]): 3.7 mg/kg; ED50 (S. pneumoniae S-4288 [14]): 12.1 mg/kg |
| C[C@@H]1CN(c2c(F)cc3c(=O)c(C(=O)O)cn(C4CC4)c3c2Cl)C[C@H]1N (relative stereo) [Example 17, 7-(trans-3-Amino-4-methyl-1-pyrrolidinyl)-8-chloro-1-cyclopropyl-6-fluoro-1,4-dihydro-4-oxo-3-quinolinecarboxylic acid] | 0.0125 (≈ 0.0329 µM) | 0.05 (≈ 0.132 µM) |  |  | 0.0063 (≈ 0.0166 µM) | 0.025 (≈ 0.0658 µM) | 0.05 (≈ 0.132 µM) | 0.0125 (≈ 0.0329 µM) | 0.0125 (≈ 0.0329 µM) | 0.05 (≈ 0.132 µM) | 0.1 (≈ 0.263 µM) | 0.39 (≈ 1.03 µM) | 0.78 (≈ 2.05 µM) | 0.78 (≈ 2.05 µM) | 0.39 | 0.1 (≈ 0.263 µM) |  | MIC (MR S. aureus KYB 623 [11]): 0.0125 µg/mL; ED50 (MR S. aureus KYB 623 [13]): 2.1 mg/kg |
| C[C@@H]1CN(c2c(F)cc3c(=O)c(C(=O)O)cn(C4CC4)c3c2Br)C[C@H]1N (relative stereo) [Example 32, 7-(trans-3-Amino-4-methyl-1-pyrrolidinyl)-8-bromo-1-cyclopropyl-6-fluoro-1,4-dihydro-4-oxo-3-quinolinecarboxylic acid] | 0.0125 (≈ 0.0295 µM) | 0.05 (≈ 0.118 µM) | 0.1 (≈ 0.236 µM) | 0.2 (≈ 0.471 µM) | 0.0063 (≈ 0.0148 µM) | 0.05 (≈ 0.118 µM) | 0.05 (≈ 0.118 µM) | 0.05 (≈ 0.118 µM) | 0.025 (≈ 0.0589 µM) | 0.05 (≈ 0.118 µM) |  | 0.39 (≈ 0.919 µM) | 0.78 (≈ 1.84 µM) | 1.56 (≈ 3.68 µM) | 0.78 | 0.2 (≈ 0.471 µM) | 0.1 (≈ 0.236 µM) | MIC [7]: 0.2 µg/mL (≈ 0.471 µM) |
| C[C@H]1CN(c2cc3c(cc2F)c(=O)c(C(=O)O)cn3C2CC2)C[C@H]1N (relative stereo) [Example 33, 7-(cis-3-Amino-4-methyl-1-pyrrolidinyl)-1-cyclopropyl-6-fluoro-1,4-dihydro-4-oxo-3-quinolinecarboxylic acid] | 0.05 (≈ 0.145 µM) | 0.1 (≈ 0.29 µM) | 0.78 (≈ 2.26 µM) | 0.39 (≈ 1.13 µM) | 0.05 (≈ 0.145 µM) | 0.05 (≈ 0.145 µM) | 0.05 (≈ 0.145 µM) | 0.05 (≈ 0.145 µM) | 0.05 (≈ 0.145 µM) | 0.05 (≈ 0.145 µM) | 0.2 (≈ 0.579 µM) | 0.39 (≈ 1.13 µM) | 12.5 (≈ 36.2 µM) | 12.5 (≈ 36.2 µM) | 6.25 | 1.56 (≈ 4.52 µM) | 0.2 (≈ 0.579 µM) |  |
| CC1CN(c2c(F)cc3c(=O)c(C(=O)O)cn(C4CC4)c3c2F)CC1N.Cl (stereo not drawn) [Example 11, 7-(3-Amino-4-methyl-1-pyrrolidinyl)-1-cyclopropyl-6,8-difluoro-1,4-dihydro-4-oxo-3-quinolinecarboxylic acid hydrochloride] | 0.025 | 0.1 |  |  |  | 0.05 | 0.05 | 0.05 | 0.05 | 0.05 | 0.39 | 0.39 | 1.56 | 3.13 |  | 0.39 | 0.78 | MIC [3]: 0.0125 µg/mL; MIC (S. pneumoniae S-4288 [12]): 0.2 µg/mL; ED50 (E. coli ML 4707): 1 mg/kg; ED50 (S. pneumoniae S-4288 [14]): 20.7 mg/kg |
| CNCC1CN(c2c(F)cc3c(=O)c(C(=O)O)cn(C4CC4)c3c2Cl)CC1C (stereo not drawn) [Example 12, 8-Chloro-1-cyclopropyl-6-fluoro-1,4-dihydro-7-(3-methylaminomethyl-4-methyl-1-pyrrolidinyl)-4-oxo-3-quinolinecarboxylic acid] | 0.0125 (≈ 0.0306 µM) | 0.05 (≈ 0.123 µM) | 0.05 (≈ 0.123 µM) | 0.05 (≈ 0.123 µM) | 0.05 (≈ 0.123 µM) | 0.2 (≈ 0.49 µM) | 0.2 (≈ 0.49 µM) | 0.1 (≈ 0.245 µM) | 0.05 (≈ 0.123 µM) | 0.2 (≈ 0.49 µM) | 0.39 (≈ 0.956 µM) | 1.56 (≈ 3.82 µM) | 0.78 (≈ 1.91 µM) | 0.78 (≈ 1.91 µM) | 0.2 | 0.05 (≈ 0.123 µM) | 0.39 (≈ 0.956 µM) |  |
| CNCC1CN(c2c(F)cc3c(=O)c(C(=O)O)cn(C4CC4)c3c2F)CC1C (stereo not drawn) [Example 13, 1-Cyclopropyl-6,8-difluoro-1,4-dihydro-7-(3-methylaminomethyl-4-methyl-1-pyrrolidinyl)-4-oxo-3-quinolinecarboxylic acid] | 0.025 (≈ 0.0639 µM) | 0.05 (≈ 0.128 µM) | 0.1 (≈ 0.255 µM) | 0.2 (≈ 0.511 µM) | 0.05 (≈ 0.128 µM) | 0.2 (≈ 0.511 µM) | 0.2 (≈ 0.511 µM) | 0.2 (≈ 0.511 µM) | 0.05 (≈ 0.128 µM) | 0.2 (≈ 0.511 µM) | 0.39 (≈ 0.996 µM) | 3.13 (≈ 8 µM) | 1.56 (≈ 3.99 µM) | 1.56 (≈ 3.99 µM) | 0.78 | 0.2 (≈ 0.511 µM) | 1.56 (≈ 3.99 µM) |  |
| CCNCC1CN(c2c(F)cc3c(=O)c(C(=O)O)cn(C4CC4)c3c2Cl)CC1C (stereo not drawn) [Example 14, 8-Chloro-1-cyclopropyl-7-(3-ethylaminomethyl-4-methyl-1-pyrrolidinyl)-6-fluoro-1,4-dihydro-4-oxo-3-quinolinecarboxylic acid] | 0.0125 (≈ 0.0296 µM) | 0.0125 (≈ 0.0296 µM) | 0.05 (≈ 0.119 µM) | 0.05 (≈ 0.119 µM) | 0.025 (≈ 0.0593 µM) | 0.1 (≈ 0.237 µM) | 0.2 (≈ 0.474 µM) | 0.2 (≈ 0.474 µM) | 0.1 (≈ 0.237 µM) | 0.2 (≈ 0.474 µM) | 0.78 (≈ 1.85 µM) | 3.13 (≈ 7.42 µM) | 1.56 (≈ 3.7 µM) | 1.56 (≈ 3.7 µM) | 0.1 | ≤ 0.05 | 0.78 (≈ 1.85 µM) |  |
| CCNCC1CN(c2c(F)cc3c(=O)c(C(=O)O)cn(C4CC4)c3c2F)CC1C (stereo not drawn) [Example 15, 1-Cyclopropyl-7-(3-ethylaminomethyl-4-methyl-1-pyrrolidinyl)-6,8-difluoro-1,4-dihydro-4-oxo-3-quinolinecarboxylic acid] | 0.025 (≈ 0.0617 µM) | 0.05 (≈ 0.123 µM) | 0.1 (≈ 0.247 µM) | 0.1 (≈ 0.247 µM) | 0.05 (≈ 0.123 µM) | 0.1 (≈ 0.247 µM) | 0.2 (≈ 0.493 µM) | 0.2 (≈ 0.493 µM) | 0.1 (≈ 0.247 µM) | 0.2 (≈ 0.493 µM) | 0.78 (≈ 1.92 µM) | 3.13 (≈ 7.72 µM) | 1.56 (≈ 3.85 µM) | 3.13 (≈ 7.72 µM) | 0.78 | 0.2 (≈ 0.493 µM) | 1.56 (≈ 3.85 µM) |  |
